Laboratory results taken from patent US20240358671A1, “COMPOSITIONS AND METHODS TO TREAT SKIN DISORDERS” (THE TRUSTEES OF INDIANA UNIVERSITY, priority 2021, published 2024).
“Also recorded” adds a separate entry of the source.

Experiments:
[1] = tested on: Human keratinocytes (HK); assay: Human keratinocytes-Pseudomonas biofilm co-culture conditioned media: keratinocyte ceramide by anti-ceramide immunostaining; assay type: cell-based; settings: HK treated with conditioned media (25% v/v) of cells co-cultured with PA biofilm containing ceramidastin 10 μg/ml, 24 h
Text: FIGS. 7A-7U relate to ceramide depletion and ceramidastin rescue. FIGS. 7A-7S: Ceramide depletion, as measured by LC-MS/MS, in cutaneous lipids. Following exposure to bacteria as applicable, lipids were extracted and analyzed via a targeted approach. Data thus obtained were subjected to analysis by ANOVA using R3.5.3 to specifically identify those lipids with significant differences between the three groups. Those with significance as tested by ANOVA were subjected to post hoc analysis using Tukey-HSD with a FDR cutoff of 0.05. Lipids with group differences that passed these thresholds were illustrated as box plots. Skin ceramides have been denoted using the standard nomenclature following the format of fatty acyl type, sphingoid backbone type, and sphingoid backbone length-fatty acyl length. […]
(§1) OCT embedded wound tissue blocks were sectioned using a cryostat. […] To enable fluorescence detection, sections were incubated with appropriate Alexa Fluor® 488 (green, Molecular probes), Alexa Fluor® […] (red, Molecular probes) conjugated secondary antibodies. […] Mosaic images were collected using collected using a Zeiss Axiovert 200 M, inverted fluorescence microscopy or confocal microscopy (LSM880). Image analysis was performed using Zen (Zeiss) software to quantitate fluorescence intensity (fluorescent pixels).

[2] = target: T1, PA bcdase (Pseudomonas aeruginosa, UniProt Q9I596); assay: Ex vivo extracted skin lipids treated with biofilm-conditioned media, ceramides by LC-MS/MS; assay type: biochemical; settings: conditioned media contained ceramidastin
T1 construct: cutaneous lipids exposed to biofilm-infected keratinocyte conditioned media (CM); endogenous in cells; host or cells: Wild-type Pseudomonas aeruginosa (PAwt) biofilm co-cultured with human keratinocytes; the conditioned medium holds the enzyme
Method: FIGS. 8A-8N illustrate ceramide depletion. FIGS. 8A-8L Ceramide depletion, as measured by LC-MS/MS, in cutaneous lipids exposed to biofilm-infected keratinocyte conditioned media (CM). As indicated, to test the significance of PA bcdase, the CM contained ceramidastin (CST). Lipids were extracted and analyzed using an untargeted approach as described in Materials and Methods. The resultant data were analyzed using R 3.3. Wilcoxon Rank-Sum test was used for all group analyses and Kruskal-Wallis followed by Benjamini Hochberg correction was performed for multiple comparisons with significance at p<0.05. Skin ceramides have been denoted using the standard nomenclature following the format of fatty acyl type, sphingoid backbone type, and sphingoid backbone length-fatty acyl length. NS=Cer 2 (with non-hydroxy fatty acid, sphingoid backbone); NP=Cer 3 (non-hydroxy fatty acid, phytopshingoid backbone); NH=Cer 8 (non-hydroxy fatty acid, 6-hydroxy sphingoid backbone); NDS=Cer 10 (non-hydroxy fatty acid, dihydroxy sphingoid backbone); AS=Cer 5 (α-hydroxy fatty acid, sphingoid backbone); AP=Cer 6 (α-hydroxy fatty acid, phytosphingoid backbone). The Y-axis values are in mol %. (M) Digital wound images and planimetry shown. […]
Untargeted lipidomics was undertaken as previously published. […] Finally, lipids were analyzed via the use of MS/MSALL approach as previously disclosed. […]

[3] = tested on: PPARδ; assay: PPARδ expression in human keratinocyte biofilm infection; assay type: cell-based; settings: in the presence of ceramidastin
Method: (§2) Bacterial biofilms were co-cultured with human keratinocytes cells following the method adapted from Anderson. The confluent cultures of human keratinocytes cells were inoculated with bacterial cultures of PAwt or PAΔcer (10^5 CFU/ml) in antibiotic free culture media. The plates were incubated for 1 h at 37° C. and 5% CO2. Post 1 h, fresh DMEM (without antibiotics) supplemented with 0.4% arginine was added to the plate. Post 7-8 hours, cells were harvested. The co-culture media was filtered using 0.2 μm filters and used for ceramidastin experiment. Human keratinocytes were treated with conditioned media (25% v/v) of cells co-cultured with PAwt biofilm containing ceramidastin (10 μg/ml) for 24 h.
Western blot was performed using antibodies against anti-PPARδ (Thermo Scientific, 1:500), anti-CerS3 (Origene, 1:500). β-actin (Sigma Aldrich, 1:5000) was used as housekeeping.

[4] = tested on: ABCA12; assay: ABCA12 in human keratinocytes after PAwt biofilm infection; assay type: cell-based
Method: as §2, §1

[5] = tested on: PPARδ promoter; assay: PPARδ promoter assay; assay type: cell-based; settings: human keratinocytes; PPARδ promoter reporter; 5 μmol long chain ceramides, 48 h
Method: PPARδ promoter assay was done as described previously. mNP-Luc (PPARdelta promoter) was a gift (Addgene plasmid #16532; http://n2t.net/addgene:16532; RRID:Addgene_16532. Human keratinocytes cells were co-transfected with the PPARδ promoter reporter construct and treated with 5 μmol of long chain ceramides, C:18 and C:24 (Avanti Polar Lipids Inc., Alabama) using Lipofectamine™ LTX Reagent with PLUS™ Reagent (Thermo Fisher Scientific). Media were collected 48 h post transfection and the secreted GLuc and SEAP activities were measured with the Secrete-Pair Dual Luminescence Assay Kit (GeneCopoeia) according to the manufacturer's protocol using the Berthold Luminometer (Berthold Technologies). Normalized promoter activity has been presented as the ratio of GLuc to SEAP activities.

[6] = tested on: PPARδ; assay: PPARδ trans-activity assay; assay type: cell-based; settings: human keratinocytes; 5 μmol long chain ceramides, 48 h
Method: Human keratinocytes cells were treated with 5 μmol of long chain ceramides, C18:0 and C24:0 (Avanti Polar Lipids Inc., Alabama) using Lipofectamine LTX (Thermo Fisher Scientific). Cells were collected 48 h post transfection and nuclear protein was extracted using Nuclear Extraction Kit (RayBiotech) as per manufacturer's protocol. PPARδ trans-activity was measured using PPAR delta Transcription Factor Assay Kit (abcam) as per manufacturer's instructions.

[7] = tested on: Propionibacterium acnes; settings: cited from earlier work
[8] = tested on: P. aeruginosa; settings: cited from earlier work
[9] = tested on: S. aureus; settings: cited from earlier work
[10] = tested on: Staphylococcus epidermidis; settings: cited from earlier work
[11] = tested on: Micrococcus luteus; settings: cited from earlier work
[12] = tested on: Streptococcus pyogenes; settings: cited from earlier work
[13] = tested on: Staphylococcus epidermidis biofilm; settings: cited from earlier work
[14] = tested on: CerS3; assay: CerS3 expression in human keratinocytes treated with PPARδ agonist or antagonist, qPCR; assay type: cell-based; settings: 1 μmol/ml
Text: FIGS. 11A-11O illustrate additional experimental results. FIG. 11A: Vector map of PPARδ promoter luciferase reporter. FIGS. 11B-11C: PPARδ drives CerS3 expression. CerS3 expression in human keratinocytes (HK) treated with PPARδ agonist (GW501516, 1 μmol/ml) or antagonist (GSK0660, 1 μmol/ml) as measured by qPCR. Data presented as mean±SEM (n=5). FIGS. 11D-11F: Upregulation of DNA methyl transferases in S-1-P treated HK. Data presented as mean±SEM (n=8). FIGS. 11G-11J: Induction of histone deacetylases in S-1P treated HK. Data presented as mean±SEM (n=8). FIGS. 11K-11N) Other histone deacetylases in S-1P treated HK. […] Data presented as mean±SEM, (n=8). FIG. 11O: miR-106b expression in HK treated with S-1-P (5 μmol/ml). Data presented as mean±SEM (n=8).

T1 sequence (Q9I596 25-670): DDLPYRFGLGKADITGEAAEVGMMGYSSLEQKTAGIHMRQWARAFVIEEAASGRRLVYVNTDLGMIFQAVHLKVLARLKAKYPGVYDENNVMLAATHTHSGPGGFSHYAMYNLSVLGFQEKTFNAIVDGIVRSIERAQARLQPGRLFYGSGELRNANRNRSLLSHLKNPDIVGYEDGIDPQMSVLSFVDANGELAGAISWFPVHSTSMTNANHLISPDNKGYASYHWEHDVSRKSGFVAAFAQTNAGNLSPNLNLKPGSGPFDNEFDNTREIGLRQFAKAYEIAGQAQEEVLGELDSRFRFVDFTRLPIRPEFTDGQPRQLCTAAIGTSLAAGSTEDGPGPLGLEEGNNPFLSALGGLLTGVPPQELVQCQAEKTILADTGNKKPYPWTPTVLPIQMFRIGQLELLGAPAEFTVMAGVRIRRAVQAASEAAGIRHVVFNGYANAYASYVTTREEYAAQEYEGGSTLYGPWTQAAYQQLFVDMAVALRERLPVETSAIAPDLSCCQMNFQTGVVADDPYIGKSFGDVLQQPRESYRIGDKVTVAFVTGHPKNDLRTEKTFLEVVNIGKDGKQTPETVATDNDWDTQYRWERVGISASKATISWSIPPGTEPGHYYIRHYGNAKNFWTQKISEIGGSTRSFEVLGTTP

Structure (SMILES): CCCCCCC(O)C1C2=C(CC(C(O)C(O)C/C=C/CO)CC3=C(C(=O)OC3=O)C1O)C(=O)OC2=O (centres unmarked) [Ceramidastin]
- keratinocyte ceramide after PAwt biofilm infection [1]: rescued keratinocyte ceramide against loss; also recorded: rescued depletion of keratinocyte ceramide
- ceramides in extracted skin lipids treated with biofilm-conditioned media [2]: rescue of ceramides
- PPARδ expression blunted by biofilm infection [3]: rescued
- loss of ABCA12 in response to biofilm infection by PAwt [4]: prevented

Structure (SMILES): CCCCCCCCCCCCC/C=C/[C@@H](O)[C@H](CO)NC(=O)CCCCCCCCCCCCCCCCC [C18]
- PPARδ transcription [5]: induced
- PPARδ transactivation [6]: induced

Structure (SMILES): CCCCCCCCCCCCC/C=C/[C@@H](O)[C@@H](N)CO [Sphingosine]
- killing of Propionibacterium acnes [7]: effectively killed
- killing of P. aeruginosa [8]: moderately killed
- killing of S. aureus [9]: effectively killed
- killing of Staphylococcus epidermidis [10]: effectively killed
- killing of Micrococcus luteus [11]: effectively killed
- killing of Streptococcus pyogenes [12]: effectively killed
- Staphylococcus epidermidis biofilm on orthopedic implant materials [13]: prevented and eliminated

Structure (SMILES): Cc1cc(SCc2sc(-c3ccc(C(F)(F)F)cc3)nc2C)ccc1OCC(=O)O [GW501516]
- CerS3 expression [14]: increased expression of CerS3

Structure (SMILES): COC(=O)c1sccc1S(=O)(=O)Nc1ccc(Nc2ccccc2)cc1OC [GSK0660]
- CerS3 expression [14]: blunted the expression of CerS3

Structure (SMILES): CCCCCCCCCCCCC/C=C/[C@@H](O)[C@H](CO)NC(=O)CCCCCCCCCCCCCCCCCCCCCCC [C24]
- PPARδ transcription [5]: induced
- PPARδ transactivation [6]: induced
